From publication PMC11822212, “High-throughput screening identifies Aurora kinase B as a critical therapeutic target for Merkel cell carcinoma” (Nature Communications, 2025)
Several values for one entry are separate records, joined by “and”; a condition that tells them apart may be missing. Equal entries are not always repeated. Where two headings read alike, the source gives them in different places.

Legend:
[1] = test system: MCC13 cells (VN-MCC); test: qHTS cell viability (CellTiter-Glo, 72 h; primary and follow-up small molecule screen); type: cell-based, human
[2] = test system: MCC26 cells (VN-MCC); test: as above; type: cell-based, human
[3] = test system: UISO cells (VN-MCC); test: as above; type: cell-based, human
[4] = test system: WAGA cells (VP-MCC); test: as above; type: cell-based, human
[5] = test system: MKL-1 cells (VP-MCC); test: as above; type: cell-based, human
[6] = test system: MKL-2 cells (VP-MCC); test: as above; type: cell-based, human
[7] = test system: HACAT cells; test: qHTS cell viability (CellTiter-Glo, 72 h; primary screen), control cell line; type: cell-based, human
[8] = test system: HEK293T cells; test: as above; type: cell-based, human
[9] = test system: NIH-3T3 cells; test: as above; type: cell-based, mouse
[10] = test system: CRL-7250 cells; test: as above; type: cell-based
[11] = test system: MCC cell lines (WAGA, MKL-1, MKL-2, MCC13, MCC26, UISO); test: qHTS cell viability, all six MCC cell lines as a group (mean AUC, MCC.avg); type: cell-based, human
[12] = test system: VP-MCC cell lines (WAGA, MKL-1, MKL-2); test: qHTS cell viability, VP-MCC cell lines as a group (mean AUC, VP.MCC.avg); type: cell-based, human
[13] = test system: VN-MCC cell lines (MCC13, MCC26, UISO); test: qHTS cell viability, VN-MCC cell lines as a group (mean AUC, VN.MCC.avg); type: cell-based, human
[14] = test system: control cell lines (HACAT, HEK293T, CRL-7250, NIH-3T3); test: qHTS cell viability, control cell lines as a group (mean AUC, Control.avg); type: cell-based
[15] = test system: six MCC cell lines and four control cell lines; test: qHTS cell viability, all 10 cell lines screened; type: cell-based
[16] = NPC library, qHTS dose-response AUC, MCC13
[17] = NPC library; qHTS dose-response AUC, MCC26
[18] = NPC library, qHTS dose-response AUC, UISO
[19] = NPC library, qHTS dose-response AUC, WAGA
[20] = NPC library, qHTS dose-response AUC, MKL1
[21] = NPC library, qHTS dose-response AUC, MKL2
[22] = NPC library, qHTS dose-response AUC, HACAT control
[23] = NPC library; qHTS dose-response AUC, HEK293T control
[24] = NPC library, qHTS dose-response AUC, NIH3T3 control
[25] = NPC library, qHTS dose-response AUC, CRL7250 control
[26] = NPC library, mean AUC of six MCC cell lines
[27] = NPC library, mean AUC of VP-MCC cell lines
[28] = NPC library, therapeutic window: Control avg AUC minus VP-MCC avg AUC
[29] = NPC library, mean AUC of VN-MCC cell lines
[30] = NPC library, therapeutic window: Control avg AUC minus VN-MCC avg AUC
[31] = NPC library, mean AUC of control cell lines
[32] = NPC library, therapeutic window: Control avg AUC minus MCC avg AUC

CCC(=O)OC1(c2ccccc2)CCN(C)CC1.Cl
MCC13_AUC [1]: 464.627 | MCC26_AUC [2]: 456.799 | UISO_AUC [3]: 451.795 | WAGA_AUC [4]: 438.281 | MKL1_AUC [5]: 398.305 | MKL2_AUC [6]: 404.215 | HACAT_AUC [7]: 483.91 | HEK293T_AUC [8]: 479.823 | NIH3T3_AUC [9]: 479.714 | CRL7250_AUC [10]: 443.177 | MCC_Avg_AUC [11]: 435.67 | Control-VP-MCC [12]: 58.056 | VP-MCC_Avg_AUC [12]: 413.6 | Control-VN-MCC [13]: 13.9158 | VN-MCC_Avg_AUC [13]: 457.741 | Control_Avg_AUC [14]: 471.656 | Control-MCC [15]: 35.9859

C#C[C@]1(OC(C)=O)CC[C@H]2[C@@H]3CCC4=CC(=NO)CC[C@@H]4[C@H]3CC[C@@]21CC (mixture of isomers) [Norgestimate]
MCC13_AUC [1, 16]: 443.22 | MCC26_AUC ([2]; NPC library, qHTS dose-response AUC, MCC26): 396.072 | MCC26_AUC [2, 17]: 396.073 | UISO_AUC [3, 18]: 417.397 | WAGA_AUC [4, 19]: 384.002 | MKL1_AUC [5, 20]: 398.179 | MKL2_AUC [6, 21]: 415.787 | HACAT_AUC [7, 22]: 469.318 | HEK293T_AUC ([8]; NPC library, qHTS dose-response AUC, HEK293T control): 418.546 | HEK293T_AUC [8, 23]: 418.545 | NIH3T3_AUC [9, 24]: 462.903 | CRL7250_AUC [10, 25]: 491.565 | MCC_Avg_AUC ([11]; NPC library, mean AUC of all 6 MCC cell lines): 409.11 | MCC_Avg_AUC [11, 26]: 409.109 | Control-VP-MCC ([12]; Control AUC minus VP-MCC AUC): 61.2604 | VP-MCC_Avg_AUC [12, 27]: 399.323 | Control-VP-MCC [12, 28]: 61.2604 | Control-VN-MCC ([13]; Control AUC minus VN-MCC AUC): 41.6867 | VN-MCC_Avg_AUC [13, 29]: 418.896 | Control-VN-MCC [13, 30]: 41.6867 | Control_Avg_AUC [14, 31]: 460.583 | Control-MCC [15, 32]: 51.4735

COc1cc(CCN)c(OC)cc1Br.Cl
MCC13_AUC [1]: 402.391 | MCC26_AUC [2]: 407.575 | UISO_AUC [3]: 386.993 | WAGA_AUC [4]: 421.438 and 421.439 | MKL1_AUC [5]: 396.289 | MKL2_AUC [6]: 390.615 | HACAT_AUC [7]: 486.493 | HEK293T_AUC [8]: 422.838 | NIH3T3_AUC [9]: 468.152 | CRL7250_AUC [10]: 439.439 | MCC_Avg_AUC [11]: 400.883 | Control-VP-MCC [12]: 51.4501 | VP-MCC_Avg_AUC [12]: 402.781 | Control-VN-MCC [13]: 55.2444 | VN-MCC_Avg_AUC [13]: 398.986 | Control_Avg_AUC [14]: 454.231 | Control-MCC [15]: 53.3472

CCOc1ccc2nc(S(N)(=O)=O)sc2c1 [Ethoxzolamide]
MCC13_AUC [1, 16]: 463.773 | MCC26_AUC [2, 17]: 444.564 | UISO_AUC [3, 18]: 429.085 | WAGA_AUC [4, 19]: 399.58 | MKL1_AUC [5, 20]: 398.827 | MKL2_AUC [6, 21]: 435.522 | HACAT_AUC [7, 22]: 484.155 | HEK293T_AUC [8, 23]: 465.047 | NIH3T3_AUC [9, 24]: 462.958 | CRL7250_AUC [10, 25]: 486.514 | MCC_Avg_AUC [11, 26]: 428.559 | VP-MCC_Avg_AUC [12, 27]: 411.31 | Control-VP-MCC [12, 28]: 63.3587 | VN-MCC_Avg_AUC [13, 29]: 445.807 | Control-VN-MCC [13, 30]: 28.8613 | Control_Avg_AUC [14, 31]: 474.669 | Control-MCC [15, 32]: 46.11
